According to patent US11149277B2, “Method of producing enriched exosomes” (National Health Research Institutes, priority 2016, dated 2021):

Legend:
Format in all cases: cell-based, human
NAMECs [1] = assay: Resistance of NAMECs to 0.05% trypsin (MET); details: 4 days treatment
Protocol: FIG. 3 includes a set of images and two graphs. (A) is a set of bright-field images of NAMECs treated with vehicle, GW627368X, Dynasore (1 μM), or GW627368X plus Dynasore (0.5, 1, 1.5 μM) for 4 days. Scale bar, 100 μm. (B) is a graph showing the percentage of NAMECs treated with vehicle, GW627368X, Dynasore (1 μM), or GW627368X plus Dynasore (0.75 and 1 μM) that were resistant to 0.05% trypsin. Data are means±SEM, (n=3). ***P≤0.001. (C) is a graph showing Boyden chamber migration of NAMECs treated with vehicle (Crl), GW627368X, Dynasore (1 μM), or GW627368X plus Dynasore (0.5, 0.75, 1 μM) for 4 days. Data are means±SEM (n=3). **P≤0.005. ***P≤0.001.

NAMECs [2] = assay: RT2 Profiler PCR arrays of signaling pathway target genes; details: 48-hour treatment
Protocol: The percentages of the target genes which, relative to NAMEC control cells, were inhibited, unchanged, or activated in GW627368X-treated NAMECs are presented in the plot.
To evaluate whether there is selective release of components of alternative signaling pathways, the activation and suppression of signaling pathways in GW-treated NAMECs were analyzed using RT2 Profiler PCR arrays. […] The decrease of p-Akt in GW-treated NAMECs and the enrichment of p-Akt in GW induced exosomes was reflected in inactivation of PI3K/Akt-signaling. Thus, EP4 antagonists are likely to interfere with the Akt-dependent signaling pathway by decreasing cellular p-Akt via exosome release.

MCF-7 cells = assay: NTA and EV protein of CM-P4 fractions of MCF-7 cells; details: increasing concentrations of GW
From the text: (A) Quantification of EV/exosome release, shown as the number of particles in the CM-P4 fractions released per cell, from MCF-7 and MDA-MB-231 breast cancer cells treated with vehicle or with the indicated concentrations of GW627368X. Particles in the P4 fractions were counted using nanoparticle tracking analysis. Data are means±SEM (n=10). *P≤0.05, ***P≤0.001. (B) Quantification of the total EV protein released from MCF-7 and MDA-MB-231 cells treated with vehicle or with the indicated concentrations of GW627368X. The amounts (m) of protein present per cell in the conditioned medium P4 fractions are presented as means±SEM (n=3). *P≤0.05; (C) Protein levels in the P4 EV/exosome fractions and cell lysates, analyzed by Western blot. Culture media and cell lysates were collected from the same numbers of MCF-7 and MDA-MB-231 cells treated with vehicle or with GW627368X (GW), at the indicated concentrations, for 4 days. The P4 fractions of the culture media, containing EVs, were isolated. […]
We next examined whether blocking EP4-mediated signaling with an EP4 antagonist can elicit EV-mediated removal of CSC proteins (e.g., mesenchymal markers and stem cell markers) in the human breast carcinoma MCF-7 and MDA-MB-231 cell lines. P4 fractions from the conditioned media (CM-P4) of GW-treated MCF-7 and MDA-MB-231 cells were analyzed using NTA (FIG. 21, A). […]

`CCOc1c2c(c(OCC)c3ccccc13)C(=O)N(c1ccc(CC(=O)NS(=O)(=O)c3ccccc3)cc1)C2` [GW627368X] was tested, and the “resistance to disassociation by 0.05% trypsin” value (NAMECs [1]) was “more resistant”, the “signaling pathways most inhibited” value (NAMECs [2]) was “PI3K/Akt, TGF-β, Wnt and androgen pathways” and the “numbers of EVs released” value (MCF-7 cells) was “modestly increased”.
